Test results reported in US7910591B2, “Piperazine derivatives of alkyl oxindoles” (EGIS Gyogyszergyar NYRT., priority 2004, dated 2011).
Where a name gives a salt, the structure may show the parent alone.

Experiments:
5-HT7 receptor = target: T1, 5-HT7 receptor (Homo sapiens, UniProt P34969); test: 5-HT7 receptor binding; settings: human cloned receptors; ligand 3H-lizergic acid diethylamide (LSD) 1.0 nM; non-specific binding clozapine 25 μM
T1 construct: expressed in transfected cells
Experimental: (§1) For the determination of 5-HT7 receptor affinity human cloned receptors were used. The α1 receptor affinities were determined from isolated frontal cortex preparation of male Wistar rats weighing 120-200 g. The protein contents of membrane preparations were determined by the method of Lowry (1951).
(§2) In the course of 5-HT7 and α1 receptor binding studies the ligands were ^3H-lizergic acid diethylamide (LSD) (1.0 nM) and ^3H-prazosine (0.3 nM). Clozapine (25 μM) and prazosine (1 μM) were used for the measurement of non-specific bindings. The α1 receptor binding studies were carried out according to the methods of Reader, and Greengrass (Reader, T. A., Briere, R., Grondin, L.: J. Neural Transm. 68, p. 79 (1987); Greengrass, P., Brenner, R.: Eur. J. Pharmacol. 55, p. 323 (1979)).
(§3) IC50 is the concentration where the difference between the whole binding and non-specific binding is 50%. The compounds with an IC50 value smaller than […] were considered effective in this test.

α1 receptor = α1 receptor binding; design: species or system rat; settings: isolated frontal cortex preparation of male Wistar rats; ligand 3H-prazosine 0.3 nM; non-specific binding prazosine 1 μM
Experimental: as §1, §2, §3

T1 sequence (P34969 whole entry): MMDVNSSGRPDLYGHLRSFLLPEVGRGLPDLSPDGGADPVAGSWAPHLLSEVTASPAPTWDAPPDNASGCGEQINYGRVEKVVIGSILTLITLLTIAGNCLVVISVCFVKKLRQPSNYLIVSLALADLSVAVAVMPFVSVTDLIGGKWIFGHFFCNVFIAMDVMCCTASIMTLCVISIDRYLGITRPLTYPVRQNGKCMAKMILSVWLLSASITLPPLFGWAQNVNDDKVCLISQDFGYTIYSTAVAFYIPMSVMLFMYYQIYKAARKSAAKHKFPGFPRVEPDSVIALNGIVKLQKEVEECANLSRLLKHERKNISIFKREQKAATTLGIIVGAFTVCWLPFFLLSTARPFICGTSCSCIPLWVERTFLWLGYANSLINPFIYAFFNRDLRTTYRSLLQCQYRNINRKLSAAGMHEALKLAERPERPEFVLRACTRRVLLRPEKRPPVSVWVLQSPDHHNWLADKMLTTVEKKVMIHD

melting point | IC50 (5-HT7 receptor) | IC50 (α1 receptor) | Structure (SMILES)
91 to 94 °C | – | – | COc1ccc(Cl)cc1N1CCN(CCCCC2C(=O)Nc3ccccc32)CC1 (stereo not shown) (as salt: hydrochloride) [Example 11, 3-{4-[4-(5-Chloro-2-methoxyphenyl)-piperazine-1-yl]-butyl}-1,3-dihydro-2H-indol-2-one Monohydrochloride]
236 to 238 °C | – | – | O=C1Nc2ccccc2C1CCCCN1CCN(c2cc(Cl)cc3c2OCCO3)CC1 (stereo not shown) (as salt: oxalate) [Example 6, 3-{4-[4-(7-Chloro-2,3-dihydrobenzo[1,4]dioxin-5-yl)-piperazine-1-yl]-butyl}-1,3-dihydro-2H-indol-2-one Monooxalate]
208 to 211 °C | – | – | COc1cccc(N2CCN(CCCCC3C(=O)Nc4ccccc43)CC2)c1 (stereo not shown) (as salt: oxalate) [Example 9, 3-{4-[4-(3-Methoxyphenyl)-piperazine-1-yl]-butyl}-1,3-dihydro-2H-indol-2-one Monooxalate]
211 to 214 °C | – | – | COc1cccc(N2CCN(CCCCC3C(=O)Nc4ccc(F)cc43)CC2)c1 (stereo not shown) (as salt: oxalate) [Example 12, 5-Fluoro-3-{4-[4-3-methoxyphenyl)-piperazine-1-yl]-butyl}-1,3-dihydro-2H-indol-2-one Monooxalate]
131 to 132 °C | < 100 nM | < 100 nM | O=C1Nc2ccccc2C1CCCCN1CCN(c2ccccn2)CC1 (stereo not shown) [Example 5, 3-[4-(4-Pyridin-2-yl-piperazine-1-yl)-butyl]-1,3-dihydro-2H-indol-2-one]
– | < 100 nM | – | O=C1Nc2ccccc2C1CCCCN1CCN(c2cc(Cl)cc3c2OCCO3)CC1 (stereo not shown) [Example 6, 3-{4-[4-(7-Chloro-2,3-dihydrobenzo[1,4]dioxin-5-yl)-piperazine-1-yl]-butyl}-1,3-dihydro-2H-indol-2-one Monooxalate]
132 to 134 °C | – | – | O=C1Nc2ccc(F)cc2C1CCCCN1CCN(c2ccccn2)CC1 (stereo not shown) [Example 7, 5-Fluoro-3-[4-(4-pyridin-2-yl-piperazine-1-yl)-butyl]-1,3-dihydro-2H-indol-2-one]
136 to 137 °C | < 100 nM | < 100 nM | O=C1Nc2cc(F)ccc2C1CCCCN1CCN(c2ccccn2)CC1 (stereo not shown) [Example 8, 6-Fluoro-3-[4-(4-pyridin-2-yl-piperazine-1-yl)-butyl]-1,3-dihydro-2H-indol-2-one]
– | < 100 nM | – | COc1cccc(N2CCN(CCCCC3C(=O)Nc4ccccc43)CC2)c1 (stereo not shown) [Example 9, 3-{4-[4-(3-Methoxyphenyl)-piperazine-1-yl]-butyl}-1,3-dihydro-2H-indol-2-one Monooxalate]
146 to 148 °C | < 100 nM | < 50 nM | O=C1Nc2ccc(F)cc2C1CCCCN1CCN(c2cc(Cl)cc3c2OCCO3)CC1 (stereo not shown) [Example 10, 3-{4-[4(7-Chloro-2,3-dihydrobenzo[1,4]dioxin-5-yl)piperazine-1-yl]-butyl}-5-fluoro-1,3-dihydro-2H-indol-2-one]
– | < 100 nM | – | COc1ccc(Cl)cc1N1CCN(CCCCC2C(=O)Nc3ccccc32)CC1 (stereo not shown) [Example 11, 3-{4-[4-(5-Chloro-2-methoxyphenyl)-piperazine-1-yl]-butyl}-1,3-dihydro-2H-indol-2-one Monohydrochloride]
– | < 100 nM | < 100 nM | COc1cccc(N2CCN(CCCCC3C(=O)Nc4ccc(F)cc43)CC2)c1 (stereo not shown) [Example 12, 5-Fluoro-3-{4-[4-3-methoxyphenyl)-piperazine-1-yl]-butyl}-1,3-dihydro-2H-indol-2-one Monooxalate]
